Measured values taken from paper PMC5906549, “Cathelicidin-Derived Antimicrobial Peptides Inhibit Zika Virus Through Direct Inactivation and Interferon Pathway” (Frontiers in Immunology, 2018).
Peptide text beside a SMILES is read from it.

Legend:
[1] = system: ZIKV strain MR766; assay: Post-infection peptide treatment of ZIKV-infected human fetal astrocytes (RT-PCR and plaque-forming assay); assay type: cell-based, Zika virus; conditions: human fetal astrocytes infected MOI 0.5 for 24 h, then peptide 10 µM for 24 h, N = 4; for Zika virions after post-infection treatment (plaque-forming assay): cell-free supernatants; for ZIKV RNA after post-infection treatment, compared with untreated ZIKV group: normalized to GAPDH
Protocol: Vero cells were plated into 12-well plates at 5 (10^5 cells/well the day before infection). On the day of infection, the monolayers of Vero cells were inoculated with 100 µL of 10-fold serial dilutions of viral stocks and incubated at 37 °C for 1 h. After viral inoculation, medium containing ZIKV particles was removed and 1 ml overlay containing 0.6% molecular biology grade agarose (Agarose Unlimited, Alachua, FL, USA) in Modified Eagle Medium (Gibco) with 2% FBS. Cells were maintained at 37°C in 5% CO2 for 4 days. On day 5, cells were fixed with 4% paraformaldehyde solution in PBS and stained with 1% crystal violet solution in 20% methanol in water. Viral plaques were photographed using a CanonScan 9950F scanner and each plaque was counted as a plaque-forming unit (PFU). Viral titer was calculated as PFU/[volume virus (mL) × (dilution factor)].
Total mRNA was isolated with TRIzol Reagent (Thermo Fisher Scientific) and RNeasy Mini Kit (QIAGEN Inc., Valencia, CA, USA) following the manufacturer’s recommendations. Two real-time RT-PCR methods were used for the current studies. First, SYBR Green-based RT-PCR assay was used to determine intracellular ZIKV RNA in Vero cells. For this assay, reverse transcription was performed using Verso cDNA synthesis Kit (Thermo Fisher Scientific) and 1 µg of total RNA in a 15-µL final volume. The RT-PCR analyses were performed using 7.5-µL SYBR Green PCR Master Mix (Thermo Fisher Scientific) with 0.5-µL cDNA, 1.5-µL H2O, 5.5-µL oligonucleotide primer pairs at 10 µM. Primers used were ZIKV RNA: forward sequence 5-[…]-3, reverse sequence 5-[…]-3; GAPDH: forward sequence 5-[…]-3, reverse sequence 5-GGCTGT […] GG-3. PCR program: 1, 50°C for 2 min; 2, 95°C for 2 min; 3, 95°C for 15 s; 4, specific annealing temperature for 15 s; 5, 72°C for 1 min. Steps 2–4 were repeated 40 times. All samples were amplified in triplicate for analysis. Relative ZIKV RNA levels were determined and standardized with a GAPDH internal control using comparative ΔΔCT method ([35]). Second, TaqMan-based RT-PCR assay was used to determine intracellular ZIKV RNA and other gene expressions in Figures 3–6 and extracellular ZIKV RNA in Figure 3. […] Relative ZIKV mRNA levels were determined and standardized with a GAPDH or 18-s rRNA endogenous control using comparative ΔΔCT method ([35]). All reference genes, including GAPDH, β-actin, and 18-s rRNA, detected identical changes of genes (Figure S1 in Supplementary Material). […] Quantitative genomic RNA from ZIKV (NR-1838DQ, ATCC) was used as a standard to calculate viral copies. […]
Figure 4 Antimicrobial peptides treatment post-infection is still effective in inhibiting Zika virus (ZIKV) infection. […] (B–D) At 24-h post-antimicrobial peptide treatment, RNA was isolated from cells and ZIKV RNA was determined through real-time RT-PCR. […]

[2] = system: ZIKV strain MR766; assay: ZIKV RNA at 2-h post-infection in pre-treated human fetal astrocytes (early infection / entry); assay type: cell-based, Zika virus; conditions: astrocytes treated with AMPs 2 h at 37°C, then ZIKV MOI 0.5 for 2 h; normalized to 18-s rRNA; N = 3
Protocol: Total mRNA was isolated with TRIzol Reagent (Thermo Fisher Scientific) and RNeasy Mini Kit (QIAGEN Inc., Valencia, CA, USA) following the manufacturer’s recommendations. Two real-time RT-PCR methods were used for the current studies. First, SYBR Green-based RT-PCR assay was used to determine intracellular ZIKV RNA in Vero cells. For this assay, reverse transcription was performed using Verso cDNA synthesis Kit (Thermo Fisher Scientific) and 1 µg of total RNA in a 15-µL final volume. The RT-PCR analyses were performed using 7.5-µL SYBR Green PCR Master Mix (Thermo Fisher Scientific) with 0.5-µL cDNA, 1.5-µL H2O, 5.5-µL oligonucleotide primer pairs at 10 µM. […] Relative ZIKV RNA levels were determined and standardized with a GAPDH internal control using comparative ΔΔCT method ([35]). […] Relative ZIKV mRNA levels were determined and standardized with a GAPDH or 18-s rRNA endogenous control using comparative ΔΔCT method ([35]). All reference genes, including GAPDH, β-actin, and 18-s rRNA, detected identical changes of genes (Figure S1 in Supplementary Material). […] Quantitative genomic RNA from ZIKV (NR-1838DQ, ATCC) was used as a standard to calculate viral copies. […]
(A) Primary human fetal astrocytes were pre-incubated at 4°C for half an hour and then treated with antimicrobial peptides along with ZIKV infection at the MOI of 0.5 for 2 h. […] ZIKV RNA was determined through real-time RT-PCR.

## CC[C@H](C)[C@H](NC(=O)[C@H](CCCCN)NC(=O)[C@H](CCCCN)NC(=O)[C@H](Cc1ccccc1)NC(=O)[C@H](CC(C)C)NC(=O)[C@H](CCCCN)NC(=O)[C@H](CCCCN)NC(=O)[C@H](Cc1ccccc1)NC(=O)[C@H](CCCCN)NC(=O)[C@H](CCCCN)NC(=O)[C@H](CCCNC(=N)N)NC(=O)[C@H](Cc1ccccc1)NC(=O)[C@H](CCCNC(=N)N)NC(=O)[C@H](CCCCN)NC(=O)[C@H](Cc1ccccc1)NC(=O)[C@H](CCCNC(=N)N)NC(=O)CN)C(=O)N[C@@H](CO)C(=O)O [BMAP-18] (H-GRFKRFRKKFKKLFKKIS-OH; N-terminus and C-terminus assumed)
[1]
  Zika virions after post-infection treatment (plaque-forming assay): fewer virions
  ZIKV RNA after post-infection treatment, compared with untreated ZIKV group: trended downward; however, the difference was not significant
[2]
  ZIKV RNA at 2-h post-infection compared with untreated ZIKV group: significantly decreased ZIKV RNA

## CC[C@H](C)[C@H](NC(=O)[C@H](CCCNC(=N)N)NC(=O)[C@H](CCC(N)=O)NC(=O)[C@@H](NC(=O)[C@@H](NC(=O)[C@H](CCCNC(=N)N)NC(=O)[C@H](CCCCN)NC(=O)[C@H](Cc1ccccc1)NC(=O)CN)[C@@H](C)CC)C(C)C)C(=O)N[C@@H](CCCCN)C(=O)N[C@@H](CC(=O)O)C(=O)N[C@@H](Cc1ccccc1)C(=O)N[C@@H](CC(C)C)C(=O)N[C@@H](CCCNC(=N)N)C(=O)N[C@@H](CC(N)=O)C(=O)N[C@@H](CC(C)C)C(=O)N[C@H](C(N)=O)C(C)C [GF-17] (H-GFKRIVQRIKDFLRNLV-NH2; N-terminus and C-terminus assumed)
[1]
  Zika virions after post-infection treatment (plaque-forming assay): fewer virions
  ZIKV RNA after post-infection treatment, compared with untreated ZIKV group: significantly decreased ZIKV RNA
[2]
  ZIKV RNA at 2-h post-infection compared with untreated ZIKV group: significantly decreased ZIKV RNA
